The results in this text go back to patent US12448372B2, “Class of triaromatic compounds targeting bifunctional phosphorylation site of STAT3 and applications thereof” (SHANGHAI YUYAO BIOTECH LTD., priority 2019, dated 2025).

Data set [1] is described as follows: Acute toxicological experiments, survival of normal mice. The following applies: dose of 80 mg/kg, FIG. 5E.
The next data set deals with PC-9. Nature of the data set: Cell proliferation by MTS method, PC-9. The format is cell-based. To be noted: Homo sapiens, Lung Cancer. The source says: (§1) (2) Detection of Cell Proliferation by MTS Method
(§2) The MTS assay is a method for indirectly determining the number of living cells via colourimetric method. MTS is a newly synthesised tetrazole compound that reflects cell viability, which can be reduced by succinate dehydrogenase in the mitochondria of living cells to an orange-coloured formazan with an absorbance of the reduced product measured at 490 nm being in proportion to the number of living cells, thus reflecting the cell viability. This assay can be used to evaluate the effect of the compound on the proliferation of pancreatic cancer cells, thereby determining the inhibitory effect of the compound on the proliferation of pancreatic cancer cells and to calculate the IC^50. Each cells were inoculated uniformly into a 96-well plate at a density of 1-20×10^3 cells/well, 100 μL per well, and placed in a constant temperature incubator until the cells adhered to the wall. […] Under light-proof conditions, MTS was added and well mixed, the mixture was placed in a constant temperature incubator at 37° C., and the light absorption value were measured using an enzyme marker at 490 nm and the experiment was repeated for three times, IC50 was calculated with GraphPad5 Prism software.
Background: Formazan colour is commonly taken as a measure of viable cells.

A further data set has as its system BGC823. Description: Cell proliferation by MTS method, BGC823. The class given is cell-based. To be noted: Homo sapiens, BGC-823, gastric Cancer.
Source text: as §1, §2

Another data set relates to BXPC3. Description: Cell proliferation by MTS method, BXPC3. To be noted: Homo sapiens, BXPC-3, Pancreatic Cancer. The format is cell-based.
Source text: as §1, §2

Another data set deals with PANC-1. Nature of the data set: Cell proliferation by MTS method, PANC-1. The class given is cell-based. The following applies: Homo sapiens, Pancreatic Cancer.
Source text: as §1, §2

In another data set the target is STAT3 SH2 domain (Homo sapiens, UniProt P40763). Description: Microscale thermophoresis binding to STAT3 SH2 domain. To be noted: MST, FIG. 5A; read-out: affinity for the STAT3 SH2 domain. An excerpt: The microscale thermophoresis (MST) technique is a simple, rapid, and accurate method for quantifying biomolecular interactions. It can measure the movement of molecules in a microscopic temperature gradient field, as well as detect changes of molecular hydration shell, charge and size. When the Nanotemper microscale thermophoresis instrument locally heated by a infrared laser, molecules will move in a directional manner, then the molecular distribution ratio in the temperature gradient field are analyzed by a fluorescence to detect whether a small molecule compound binds to a target protein. The experimental operation is as follows: firstly, compounds to be tested are diluted in a gradient using MST test buffer, total 16 concentrations being configured; subsequently, the purified STAT3 recombinant protein is labeled using the HIS tag labeling kit, and the final concentration of the labeled protein is 100-200 nM; the labeled STAT3 proteins are well mixed with the diluted compounds and incubated and protected from light for 30 minutes; finally the samples were loaded by capillary tube and detected on the instrument. The binding constants (K^D) of small molecules to STAT3 protein were analyzed by Mo. analysis software.
Sequence of STAT3 SH2 domain (P40763 580-670 limits assumed): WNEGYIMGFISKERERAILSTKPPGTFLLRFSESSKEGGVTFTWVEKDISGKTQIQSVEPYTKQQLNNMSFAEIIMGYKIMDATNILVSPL
(1) Microscale Thermophoresis Experiment
The method is as described in Example 40.
Background: MST reads how a fluorescent partner responds to local heating, with and without ligand.

Data set [2] concerns mouse pancreatic cancer cells Pan02-Luci. Description: Pancreatic cancer liver metastasis model, Pan02-Luci in C57BL/6 mice. The format is in vivo. The source says: (1) Animal Experiment on Pancreatic Cancer Liver Metastasis
Pancreatic cancer is a malignant tumor of the gastrointestinal tract, with rapidly progressing condition, high degree of progression, and very limited clinical treatments, and metastasis is very likely to occur in the terminal stage, among which liver metastasis is the most common, and the occurrence of liver metastasis is also an important manifestation of the seriousness of the disease. In the present invention, by injecting pancreatic cancer cells into the spleen, the tumour cells will directed metastasize to the liver, thereby simulating the occurrence and metastasis process of pancreatic cancer liver metastasis. […] Fluorescence detection of mice was performed using the Small Animal In vivo Imaging Instrument (IVIS), according to the obtained fluorescence values, the mice were divided into control group, WB737 5 mg/kg/d low dose group, 10 mg/kg/d medium dose group and 20 mg/kg/d high dose group, and IACS-010759-10 mg/kg positive compound group, and the mean fluorescence values of each group were ensured to be consistent. […] Metastasiss were recorded using small animal in vivo imaging instrument (IVIS) during the experiment, and body weight of the mice was measured every 3-4 days. […]

The test system of another data set is SMMC7721. Nature of the data set: Cell proliferation by MTS method, SMMC7721. The format is cell-based. To be noted: Homo sapiens, SMMC-7721, Liver Cancer.
Source text: as §1, §2

In the next data set the test system is LNCAP. Nature of the data set: Cell proliferation by MTS method, LNCAP. The following applies: Homo sapiens, Prostate Cancer. The class given is cell-based.
Source text: as §1, §2

The test system of the next data set is H522. Nature of the data set: Cell proliferation by MTS method, H522. The format is cell-based. To be noted: Homo sapiens, NCI-H522, Lung Cancer.
Source text: as §1, §2

The next data set relates to Huh7. Nature of the data set: Cell proliferation by MTS method, Huh7. The format is cell-based. The following applies: Homo sapiens, Huh-7. In outline:
(§3)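 Following attachment at 1-20×10^3 cells per well, treatment with varied doses of compound lasted 24-96 h. Living-cell reduction of MTS at 37° C. was quantified by 490 nm absorbance, repeated three times to derive IC50.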

Another data set concerns SW1990. Description: Cell proliferation by MTS method, SW1990. The class given is cell-based. The following applies: Homo sapiens, Pancreatic Cancer.
Source text: as §1, §2

For another data set, the system named is H1975. Description: Cell proliferation by MTS method, H1975. The format is cell-based. The following applies: Homo sapiens, NCI-H1975, Lung Cancer.
Source text: as §1, §2

The next data set relates to DU145. Nature of the data set: Cell proliferation by MTS method, DU145. The class given is cell-based. To be noted: Homo sapiens, DU-145, Prostate Cancer.
Source text: as §1, §2

For the next data set, the system named is HCC827. Nature of the data set: Cell proliferation by MTS method, HCC827. To be noted: Homo sapiens. The class given is cell-based. In outline:
as §3

For the next data set, the system named is H23. Nature of the data set: Cell proliferation by MTS method, H23. The class given is cell-based. The following applies: Homo sapiens, NCI-H23, Lung Cancer.
Source text: as §1, §2

Read-outs that look alike come from different tables or passages of the source.

Regarding `Cn1c(C(=O)N2CCN(Cc3ccc(OCC(F)(F)F)cc3)CC2)cc2ccc(Oc3cnc(-c4nc(-c5ccc(C(F)(F)F)cc5)no4)cn3)cc21` [Example 6, (6-((5-(3-(4-(trifluoromethyl)phenyl)-1,2,4-oxadiazol-5-yl)pyrazin-2-yl)oxy)1-methyl-1H-indol-2-yl)(4-(4-(2,2,2-trifluoroethoxy)benzyl)piperazin-1-yl)methanone], the “mortality of normal mice” value in data set [1] was “no mice died”. Also, the IC50 in the data set with PC-9 came to 21.3 nM; in the data set on BGC823, 6.1 ± 0.9 nM; in the data set on BXPC3 it was 7.6 nM; in the data set on PANC-1, 8.1 nM; with SMMC7721, 6.4 nM; in the data set on LNCAP, 10.3 nM. The IC50 with H522 was 12 nM; in the data set on Huh7 (Liver Cancer, Huh7, read-out: IC50) it was 8.6 nM; in the data set with Huh7 (Table 1, Huh7, read-out: Tumour cell proliferative activity/IC50(nM) Liver Cancer Huh7) it was below 10 nM; in the data set with SW1990, 1.3 nM; with H1975, 11.7 nM; in the data set on DU145, 12.4 nM. Moreover, the IC50 in the data set with HCC827 (Lung Cancer, HCC827, read-out: IC50) is 0.5 nM; in the data set with HCC827 (Table 1, HCC827, read-out: Tumour cell proliferative activity/IC50(nM) Lung Cancer HCC827), below 10 nM; in the data set with H23 it was 2.9 nM. Besides, on STAT3 SH2 domain, the Kd amounted to 2.25 nM. For the same compound, in data set [2] (Pan02-Luci injected into spleen, C57BL/6 mice, 5, 10, 20 mg/kg/d by gavage, FIG. 4A/4B), the “liver metastasis of tumours” value is reported as “dose-dependently inhibits liver metastasis of tumours”. Further, the survival of mice entry in data set [2] (pancreatic tumour liver metastasis model (Pan02), 5, 10, 20 mg/kg by gavage once a day, FIG. 4C) is listed as “significantly prolongs the survival of mice”.
